Read-outs that look alike come from different tables or passages of the source. Ends that are not written are not given here.
How the values were obtained:
[1] = test system: Salmonella enterica serovar Typhimurium ATCC 13311; format: cell-based; conditions: ATCC 13311, standard strain, triplicate; for MIC: broth microdilution, ~10^7 CFU/ml, 37°C, 24 h
Experimental: (§1) Salmonella enterica serovar Typhimurium ATCC 13311, 24 drug-resistant foodborne and eleven drug-resistant human borne S. enterica serovar Typhimurium and 4,5,12:i:- isolates (Table 1) were used as test microorganisms. They were previously isolated for molecular characterization in 2014 and kindly provided by Dr. Soraya Chaturongakul (Mahidol University, Thailand) ([Huoy et al., 2014]). All bacteria were cultured in Tryptic Soy Broth (TSB) and incubated at 37°C for 18 h. Mueller Hinton Broth (MHB) was then used to wash and rinse the bacteria. The bacterial suspensions were then diluted to obtain concentrations of 10^7 CFU/ml for inoculations.
(§2) A modified version of the National Committee for Clinical Laboratory Standards (NCCLS) broth microdilution method ([Steinberg et al., 1997]) was used to determine the minimum inhibitory concentrations (MICs) of peptide and compared to that of nisin. Fifty microliters of two-fold serial dilutions of each peptide [0.98–250 μg/ml in 0.01% (v/v) acetic acid and 0.2% (w/v) bovine serum albumin (BSA, Sigma-Aldrich, MO, United States)], were incubated with 50 μl of bacterial suspensions (approximately 10^7 CFU/ml) at 37°C for 24 h in a shaking incubator. MICs were taken as the lowest concentration of peptide at which growth was inhibited as observed by visual inspection. Bacterial cultures without peptides and uncultured broth were used as positive and negative controls, respectively. Minimal bactericidal concentrations (MBCs) were determined using a colony count assay ([Clinical Laboratory Standards Institute [CLSI], 2015]). Fifty microliters of samples from each non-turbid well in the MIC determination experiment was plated on Mueller Hinton Agar (MHA) and colonies were observed after overnight incubation at 37°C. MBCs were designated as the least concentration showing no colony growth on the plate. All of experiments were performed in triplicate.

[2] = test system: S. enterica serovar Typhimurium H1-001 (clinical isolate); assay: MIC/MBC, broth microdilution and colony count; format: cell-based, Salmonella enterica serovar Typhimurium; conditions: H1-001, blood, resistant Amp, Ctx, C, Cp, NA, T, intermediate Amc, broth microdilution, 37°C, 24 h
Experimental: as §1, §2

[3] = test system: S. enterica serovar Typhimurium H1-006 (clinical isolate); assay: MIC/MBC, broth microdilution and colony count; format: cell-based, Salmonella enterica serovar Typhimurium; conditions: H1-006, blood; resistant NA; intermediate S, Cp; broth microdilution, 37°C, 24 h
Experimental: as §1, §2

[4] = test system: S. enterica serovar Typhimurium H1-015 (clinical isolate); assay: MIC/MBC, broth microdilution and colony count; format: cell-based, Salmonella enterica serovar Typhimurium; conditions: H1-015, boot swab, resistant Amp, intermediate Cp, broth microdilution, 37°C, 24 h
Experimental: as §1, §2

[5] = test system: S. enterica serovar Typhimurium H1-041 (clinical isolate); assay: MIC/MBC, broth microdilution and colony count; format: cell-based, Salmonella enterica serovar Typhimurium; conditions: H1-041, stool, resistant Amp, Ctx, C, T, SxT, intermediate Amc, Cp, NA, broth microdilution, 37°C, 24 h
Experimental: as §1, §2

[6] = test system: S. enterica serovar Typhimurium H1-062 (clinical isolate); assay: MIC/MBC, broth microdilution and colony count; format: cell-based, Salmonella enterica serovar Typhimurium; conditions: H1-062, stool, resistant Amc, Amp, Ctx, C, NA, T, intermediate Cp, broth microdilution, 37°C, 24 h
Experimental: as §1, §2

[7] = test system: S. enterica serovar Typhimurium ATCC 13311; format: cell-based, Salmonella enterica serovar Typhimurium
Experimental: as §2
The stability of P7 was tested by determining its antibacterial activity after exposure to different environmental conditions (high salt concentration, different ranges of pH, proteolytic enzymes and high temperatures) as previously described ([Shwaiki et al., 2020]). To test the effect of salts on the antibacterial activity of P7, 10^7 CFU/ml of S. enterica serovar Typhimurium ATCC 13311 was exposed to two-fold serially diluted concentrations (0.98–250 μg/ml) of P7 in the presence of different salts including NaCl (150 mM), KCl (4.5 mM), MgCl2 (1 mM), NH4Cl (6 μM), ZnCl2 (8 μM), FeCl3 (4 μM), and CaCl2 ([…]) ([Xu et al., 2014]). To determine pH stability, the pH of the peptide’s solution was adjusted to 3, 5, 7, 9, and 11 using 1 M NaOH or 1 M acetic acid (CH3COOH). P7 were incubated in the different pH conditions for 1 h, then transferred to inoculated MHB for antibacterial testing ([Chen et al., 2020]), There was no change of the pH following the addition of peptide. To determine the sensitivity of peptide to proteolytic enzymes, the residual activity of P7 was measured after incubation the peptide with 1 mg/ml (final concentration) of proteolytic enzymes (pepsin or trypsin) at 37°C for 1 h and heat denaturation at 80°C for 1 h. To study thermostability, peptides were pre-incubated without bacteria at various temperatures (40, 60, 80, and 100°C) for 1 h and left to cool for 30 min before testing. After these treatments, the antibacterial assays were carried out and MICs determined as described in section “Antibacterial activity assay.”

[8] = peptide pre-incubated at 40°C for 1 h, cooled 30 min

Substance: Nisin: authorized food preservative peptide, binds lipid II and forms membrane pores (ITSISLCTPGCKTGALMGCNMKTATCHCSIHVSK; cysteine pairing not given here; also: lantibiotic nisin-A; UniProt P13068 24-57, looked up)
- MIC [1]: >1000 µg/mL
- MIC [2]: >1000 µg/mL
- MIC [3]: >1000 µg/mL
- MIC [4]: >1000 µg/mL
- MIC [5]: >1000 µg/mL
- MIC [6]: >1000 µg/mL

Substance: KIAKRIWKILRR-NH2 [P7]
- MIC [1]: 3.91 (3.91) μg/ml
- MBC ([1]; colony count on MHA): 3.91 (3.91) μg/ml
- MIC ([7]; ATCC 13311, 1 h): 7.81 µg/mL
- MBC ([7]; ATCC 13311, 1 h, pH 3): 15.63 µg/mL
- MIC ([7]; ATCC 13311, 1 h, pH 3): 7.81 µg/mL
- MBC ([7]; ATCC 13311, 1 h, pH 5): 7.81 µg/mL
- MIC ([7]; ATCC 13311, 1 h, pH 5): 7.81 µg/mL
- MBC ([7]; ATCC 13311, 1 h, pH 7): 7.81 µg/mL
- MIC ([7]; ATCC 13311, 1 h, pH 7): 7.81 µg/mL
- MBC ([7]; ATCC 13311, 1 h, pH 9): 7.81 µg/mL
- MIC ([7]; ATCC 13311, 1 h, pH 9): 7.81 µg/mL
- MBC ([7]; ATCC 13311, 1 h, pH 11): 15.63 µg/mL
- MIC ([7]; ATCC 13311, 1 h, pH 11): 7.81 µg/mL
- MIC ([7]; ATCC 13311, 24 h): 7.81 µg/mL
- MBC ([7]; Control (no salt)): 3.91 µg/mL
- MIC ([7]; Control (no salt)): 3.91 µg/mL
- MIC ([7]; MgCl2 (1 mM)): 31.25 µg/mL
- MIC ([7]; NaCl (150 mM)): 31.25 µg/mL
- MIC ([7]; after pepsin 1 mg/ml, 37°C, 1 h, then heat denaturation 80°C): 31.25 µg/mL
- MIC ([7]; after trypsin 1 mg/ml, 37°C, 1 h, then heat denaturation 80°C): 31.25 µg/mL
- MBC [7, 8]: 3.91 µg/mL
- MIC [7, 8]: 3.91 µg/mL
- MIC ([7]; peptide pre-incubated at 60°C for 1 h, cooled 30 min): 3.91 µg/mL
